Assay results as given in patent US5561150A, “Tricyclic pyrazole derivatives” (Hoffman-La Roche Inc., priority 1994, dated 1996).
Structures can show the parent of a compound that is named as a salt. Where two headings read alike, the source gives them in different places.

Experiments:
[1] = molecular target: T1, recombinant human-5HT1A receptors (Homo sapiens, UniProt P08908); test: Displacement assay with [3H]-5-HT (1 nM) on recombinant human 5HT1A receptors expressed in 3T3 cells of mice (test method a); format: binding
T1 construct: expressed in transfected cells; host or cells: 3T3 cells of mice (membranes)
T1 sequence (P08908 1-422): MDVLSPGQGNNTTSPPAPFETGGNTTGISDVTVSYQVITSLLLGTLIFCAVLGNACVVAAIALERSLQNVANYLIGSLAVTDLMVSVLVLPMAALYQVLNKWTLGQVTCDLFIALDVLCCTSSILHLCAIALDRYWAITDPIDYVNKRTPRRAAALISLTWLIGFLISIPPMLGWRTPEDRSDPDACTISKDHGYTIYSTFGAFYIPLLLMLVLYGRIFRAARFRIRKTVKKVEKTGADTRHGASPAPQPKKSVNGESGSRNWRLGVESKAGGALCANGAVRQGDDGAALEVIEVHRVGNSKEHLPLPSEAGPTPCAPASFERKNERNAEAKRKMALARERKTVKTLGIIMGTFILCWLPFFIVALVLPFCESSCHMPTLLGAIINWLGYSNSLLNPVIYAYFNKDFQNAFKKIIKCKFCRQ
Experimental: (§1) The binding of compounds of formula I in accordance with the invention to serotonin receptors was determined in vitro by standard methods. The compounds were investigated in accordance with the assays given hereinafter:
[L] is the concentration of ligand and the KD value is the dissociation constant of the ligand.

[2] = molecular target: 5HT2C receptor; test: [3H]-5-HT binding assay, 5HT2C receptor (test method b); conditions: radioligand [3H]-5-HT, pki = -log10 Ki
Experimental: as §1
b) For the binding to the 5HT2C receptor in accordance with the [3H]-5-HT binding assay according to the method of S.J Peroutka et al., Brain Research 584, 191-196 (1992).
(§2) The pki values (pki =-log10 Ki) of the test substances are given. The ki value is defined by the following formula: [formula] in which the IC50 values are those concentrations of test compounds in nmol by which 50% of the receptor-bound ligands are displaced. [L] is the concentration of ligand and the KD value is the dissociation constant of the ligand.

[3] = molecular target: 5HT2A receptor (Homo sapiens, UniProt P28223); test: [3H]-DOB binding assay, 5HT2A receptor (test method c)
5HT2A receptor, sequence (P28223 whole entry): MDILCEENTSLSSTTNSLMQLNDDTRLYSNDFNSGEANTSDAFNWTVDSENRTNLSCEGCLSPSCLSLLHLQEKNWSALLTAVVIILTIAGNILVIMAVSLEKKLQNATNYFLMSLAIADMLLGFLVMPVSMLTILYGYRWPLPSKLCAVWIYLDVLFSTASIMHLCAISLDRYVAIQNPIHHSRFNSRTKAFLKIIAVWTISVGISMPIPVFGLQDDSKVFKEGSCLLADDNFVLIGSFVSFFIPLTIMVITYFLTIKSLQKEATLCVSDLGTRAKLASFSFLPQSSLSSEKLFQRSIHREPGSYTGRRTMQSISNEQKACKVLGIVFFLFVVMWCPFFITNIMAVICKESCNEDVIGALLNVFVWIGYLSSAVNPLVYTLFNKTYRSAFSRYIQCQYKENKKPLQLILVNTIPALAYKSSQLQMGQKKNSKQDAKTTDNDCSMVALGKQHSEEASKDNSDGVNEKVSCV
Experimental: as §1
c) For the binding to the 5HT2A receptor in accordance with the [3H]-DOB binding assay according to the method of T. Branchek et al., Molecular Pharmacology 38, 604-609 (1990).
as §2

[4] = molecular target: T2, 5HT2C receptor (Rattus norvegicus, UniProt P08909); test: Penile erection (rats); format: in vivo; conditions: 0.75 h, within 45 minutes after administration
T2 construct: from tissue; host or cells: living rats (in vivo, s.c. dosing)
T2 sequence (P08909 33-460): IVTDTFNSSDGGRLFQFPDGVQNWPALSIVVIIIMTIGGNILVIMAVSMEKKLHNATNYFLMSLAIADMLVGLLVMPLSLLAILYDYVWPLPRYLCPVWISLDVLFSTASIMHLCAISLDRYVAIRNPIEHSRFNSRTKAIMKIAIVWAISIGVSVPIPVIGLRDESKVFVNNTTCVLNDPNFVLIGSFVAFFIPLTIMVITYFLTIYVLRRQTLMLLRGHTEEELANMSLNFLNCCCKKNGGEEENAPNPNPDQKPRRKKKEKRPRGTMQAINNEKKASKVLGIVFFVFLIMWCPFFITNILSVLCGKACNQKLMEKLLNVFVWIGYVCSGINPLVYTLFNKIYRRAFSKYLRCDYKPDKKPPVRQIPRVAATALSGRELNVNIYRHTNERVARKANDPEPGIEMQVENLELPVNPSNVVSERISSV
Experimental: It has been shown that penile erection is dependent on stimulation of the 5HT2C receptor (see Berendsen & Broekkamp, Eur. J. Pharmacol. 135, 179-184 (1987)).
The number of penile erections was determined within 45 minutes after administration of the test substance. The ED50 is the dose which causes 50% of these erections.

[5] = 5HT1A, radioligand [3H]-5-HT (1 nM), pki = -log10 Ki, read-out: pKi, test method a (converted)
[6] = po, p.o., read-out: ED50 penile erection, p.o.
[7] = sc, s.c., read-out: ED50 penile erection, s.c.

**Q.** For `CC(N)Cn1ncc2c1-c1cc(F)ccc1C2(C)C` (racemic) [Example 12, (RS)-2-(7-fluoro-4,4-dimethyl-1,4-dihydroindeno[2,1-c]pyrazol-1-yl)-1-methyl-ethylamine fumarate (1:1)], which Ki [1] is on record?
**A.** Its Ki is 1230 nM.

**Q.** What about the “pKi, test method b” value [2] of the same compound?
**A.** Its value is 7.72.

**Q.** And the Ki [3]?
**A.** The Ki was 141 nM.

**Q.** What does the source list for `COc1ccc2ccc3cnn(CC(C)N)c3c2c1` (racemic) [Example 16, (RS)-2-(8-methoxy-1H-benz[g]indazol-1-yl)-1-methyl-ethylamine fumarate (1:0.5)]?
**A.** Ki [1]: 200 nM; pKi, test method b [2]: 8.94; Ki [3]: 25.1 nM

**Q.** For `CC(N)Cn1ncc2c1-c1cc(F)ccc1C2` (racemic) [Example 11, (RS)-2-(7-fluoro-1,4-dihydroindeno[2,1-c]pyrazol-1-yl)-1-methyl-ethylaminefumarate (1:1)], which Ki [1, 5] is on record?
**A.** The Ki was 1780 nM.

**Q.** And the “pKi, test method b” value [2]?
**A.** Its value is 7.51.

**Q.** And the Ki [3]?
**A.** The Ki was 263 nM.

**Q.** For `COc1ccc2c(c1)-c1c(cnn1CC(C)N)C2(C)C` (racemic) [Example 6, (RS)-2-(7-methoxy-4,4-dimethyl-1,4-dihydroindeno[2,1-c]pyrazol-1-yl)-1-methyl-ethylamine fumarate (1:1)], which Ki [1] is on record?
**A.** The Ki was 1820 nM.

**Q.** What about the “pKi, test method b” value [2] of the same compound?
**A.** The value was 8.33.

**Q.** And the Ki [3]?
**A.** Its Ki is 49 nM.

**Q.** Which results are given for `COc1ccc2c(c1)-c1c(cnn1CC(C)N)C2` (racemic) [Example 1, (RS)-2-(7-methoxy-1,4-dihydro-indeno[2,1-c]pyrazol-1-yl)-1-methyl-ethylamine fumarate (1:1)]?
**A.** Ki [1]: 355 nM; pKi, test method b [2]: 8.26; Ki [3]: 93.3 nM; ED50 [4, 6]: 3.2 mg/kg; ED50 [4, 7]: 0.32 mg/kg

**Q.** What does the source list for `Cc1ccc2c(c1)-c1c(cnn1CC(C)N)C2(C)C` (racemic) [Example 5, (RS)-2-(4,4,7-trimethyl-1,4-dihydroindeno[2,1-c]pyrazol-1-yl)-1-methyl-ethylamine fumarate (1:1)]?
**A.** Ki [1, 5]: 631 nM; pKi, test method b [2]: 7.90; Ki [3]: 191 nM

**Q.** Which “pKi, test method b” value [2] does the source give for `CCOc1ccc2c(c1)-c1c(cnn1C[C@@H](C)N)C2` [Example 17, (R)-2-(7-ethoxy-1,4-dihydro-indeno[2,1-c]pyrazol-1-yl)-1-methyl-ethylaminefumarate (1:1)] here?
**A.** The value was 7.40.

**Q.** What about the Ki [3] of the same compound?
**A.** The Ki was 209 nM.

**Q.** Which Ki [1] does the source give for `COc1ccc2c(c1)-c1c(c(C)nn1CC(C)N)C2` (racemic) [Example 8] here?
**A.** The Ki was 6760 nM.

**Q.** What about the “pKi, test method b” value [2] of the same compound?
**A.** The value was 7.13.

**Q.** And the Ki [3]?
**A.** Its Ki is 832 nM.

**Q.** For `CCOc1ccc2c(c1)-c1c(cnn1CC(C)N)C2` (racemic) [Example 13, (RS)-2-(7-ethoxy-1,4-dihydroindeno[2,1-c]pyrazol-1-yl)-1-methyl-ethylaminefumarate (1:1)], which Ki [1, 5] is on record?
**A.** The Ki was 1200 nM.

**Q.** What about the “pKi, test method b” value [2] of the same compound?
**A.** Its value is 8.38.

**Q.** What about the Ki [3] of the same compound?
**A.** Its Ki is 49 nM.

**Q.** And the ED50 [4, 6]?
**A.** The ED50 was 2.7 mg/kg.

**Q.** And the ED50 [4, 7]?
**A.** The ED50 was 0.5 mg/kg.

**Q.** `COc1ccc2c(c1)Cc1cnn(CC(C)N)c1-2` (racemic) [Example 14, (RS)-2-(6-methoxy-1,4-dihydroindeno[2,1-c]pyrazol-1-yl)-1-methyl-ethylamine fumarate (1:1)] was tested. Which Ki [1, 5] did it give?
**A.** The Ki was 2340 nM.

**Q.** What about the “pKi, test method b” value [2] of the same compound?
**A.** Its value is 6.70.

**Q.** And the Ki [3]?
**A.** Its Ki is 1550 nM.

**Q.** For `COc1ccc2c(c1)-c1c(cnn1C[C@@H](C)N)C2` [Example 7, (R)-2-(7-methoxy-1,4-dihydro-indeno[2,1-c]pyrazol-1-yl)-1-methyl-ethylamine fumarate (1:1)], which Ki [1] is on record?
**A.** The Ki was 2450 nM.

**Q.** What about the “pKi, test method b” value [2] of the same compound?
**A.** The value was 7.73.

**Q.** And the Ki [3]?
**A.** The Ki was 363 nM.

**Q.** With `COc1ccc2c(c1)-c1c(cnn1C[C@H](C)N)C2` [Example 2, (S)-2-(7-methoxy-1,4-dihydro-indeno[2,1-c]pyrazol-1-yl)-1-methyl-ethylamine fumarate (1:1)] as the compound, how does the Ki [1] read?
**A.** The Ki was 339 nM.

**Q.** And the “pKi, test method b” value [2]?
**A.** Its value is 8.57.

**Q.** And the Ki [3]?
**A.** The Ki was 49 nM.

**Q.** And the ED50 [4, 6]?
**A.** Its ED50 is 1.4 mg/kg.

**Q.** What about the ED50 [4, 7] of the same compound?
**A.** Its ED50 is 0.32 mg/kg.

**Q.** `COc1ccc2c(c1)-c1c(cnn1CC(C)N)CC2.O=C(O)/C=C/C(=O)O` (racemic) [Example 15, (RS)-2-(4,5-dihydro-8-methoxy-1H-benz[g]indazol-1-yl)-1-methyl-ethylamine fumarate (1:1)] was tested. Which Ki [1] did it give?
**A.** Its Ki is 1290 nM.

**Q.** And the “pKi, test method b” value [2]?
**A.** The value was 8.28.

**Q.** And the Ki [3]?
**A.** Its Ki is 81.3 nM.

**Q.** Which results are given for `Cc1ccc2c(c1)-c1c(cnn1C[C@H](C)N)C2(C)C` [Example 3, (S)-2-(4,4,7-trimethyl-1,4-dihydro-indeno[2,1-c]pyrazol-1-yl)-1-methyl-ethylamine fumarate (1:1)]?
**A.** Ki [1, 5]: 4170 nM; pKi, test method b [2]: 8.32; Ki [3]: 229 nM

**Q.** With `Cc1ccc2c(c1)-c1c(cnn1CC(C)N)C2` (racemic) [Example 10, (RS)-2-(7-methyl-1,4-dihydroindeno[2,1-c]pyrazol-1-yl)-1-methyl-ethylamine fumarate (1:1)] as the compound, how does the Ki [1, 5] read?
**A.** The Ki was 1660 nM.

**Q.** What about the “pKi, test method b” value [2] of the same compound?
**A.** Its value is 8.32.

**Q.** What about the Ki [3] of the same compound?
**A.** Its Ki is 50.1 nM.

**Q.** Which results are given for `COc1ccc2c(c1)-c1c(cnn1C[C@H](C)N)C2(C)C` [Example 4, (S)-2-(7-methoxy-4,4-dimethyl-1,4-dihydroindeno[2,1-c]pyrazol-1-yl)-1-methyl-ethylamine fumarate (1:1)]?
**A.** Ki [1]: 2630 nM; pKi, test method b [2]: 8.65; Ki [3]: 37.2 nM

**Q.** How did the Ki [1, 5] turn out when `CCOc1ccc2c(c1)-c1c(cnn1C[C@H](C)N)C2` [Example 18, (S)-2-(7-ethoxy-1,4-dihydro-indeno[2,1-c]pyrazol-1-yl)-1-methyl-ethylaminefumarate (1:1)] was run?
**A.** Its Ki is 1000 nM.

**Q.** And the “pKi, test method b” value [2]?
**A.** The value was 8.48.

**Q.** And the Ki [3]?
**A.** Its Ki is 49 nM.

**Q.** What about the ED50 [4, 6] of the same compound?
**A.** Its ED50 is 2.3 mg/kg.

**Q.** What about the ED50 [4, 7] of the same compound?
**A.** Its ED50 is 0.7 mg/kg.
